Article PMC6704710, “Preclinical evaluation of 3D185, a novel potent inhibitor of FGFR1/2/3 and CSF-1R, in FGFR-dependent and macrophage-dominant cancer models” (Journal of Experimental & Clinical Cancer Research : CR, 2019)

How the values were obtained:
Test in all cases: Eurofins kinase panel
Assay type in all cases: biochemical
Conditions in all cases: read-out: Inhibition rate (%)
[1] = target: T1, TGFBR1(h) (Homo sapiens, UniProt P36897)
T1 construct: purchased Eurofins (KinaseProfiler)
T1 sequence (P36897 34-503): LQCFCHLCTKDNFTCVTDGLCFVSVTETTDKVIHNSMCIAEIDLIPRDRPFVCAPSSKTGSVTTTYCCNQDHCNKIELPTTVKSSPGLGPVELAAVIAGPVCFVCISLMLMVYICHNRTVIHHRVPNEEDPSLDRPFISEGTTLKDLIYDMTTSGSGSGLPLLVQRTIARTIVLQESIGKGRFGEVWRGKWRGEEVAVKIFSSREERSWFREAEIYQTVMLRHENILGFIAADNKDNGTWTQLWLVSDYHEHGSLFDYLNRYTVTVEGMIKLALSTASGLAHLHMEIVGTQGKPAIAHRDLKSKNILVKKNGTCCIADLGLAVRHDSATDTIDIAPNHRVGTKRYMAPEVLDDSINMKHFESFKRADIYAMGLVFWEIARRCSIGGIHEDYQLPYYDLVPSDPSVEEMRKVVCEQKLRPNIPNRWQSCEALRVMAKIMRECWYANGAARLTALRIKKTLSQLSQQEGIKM

[2] = target: T2, Ret (V804L)(h) (Homo sapiens, UniProt P07949, V804L)
T2 construct: purchased Eurofins (KinaseProfiler)
T2 sequence (P07949 29-1114 V804L): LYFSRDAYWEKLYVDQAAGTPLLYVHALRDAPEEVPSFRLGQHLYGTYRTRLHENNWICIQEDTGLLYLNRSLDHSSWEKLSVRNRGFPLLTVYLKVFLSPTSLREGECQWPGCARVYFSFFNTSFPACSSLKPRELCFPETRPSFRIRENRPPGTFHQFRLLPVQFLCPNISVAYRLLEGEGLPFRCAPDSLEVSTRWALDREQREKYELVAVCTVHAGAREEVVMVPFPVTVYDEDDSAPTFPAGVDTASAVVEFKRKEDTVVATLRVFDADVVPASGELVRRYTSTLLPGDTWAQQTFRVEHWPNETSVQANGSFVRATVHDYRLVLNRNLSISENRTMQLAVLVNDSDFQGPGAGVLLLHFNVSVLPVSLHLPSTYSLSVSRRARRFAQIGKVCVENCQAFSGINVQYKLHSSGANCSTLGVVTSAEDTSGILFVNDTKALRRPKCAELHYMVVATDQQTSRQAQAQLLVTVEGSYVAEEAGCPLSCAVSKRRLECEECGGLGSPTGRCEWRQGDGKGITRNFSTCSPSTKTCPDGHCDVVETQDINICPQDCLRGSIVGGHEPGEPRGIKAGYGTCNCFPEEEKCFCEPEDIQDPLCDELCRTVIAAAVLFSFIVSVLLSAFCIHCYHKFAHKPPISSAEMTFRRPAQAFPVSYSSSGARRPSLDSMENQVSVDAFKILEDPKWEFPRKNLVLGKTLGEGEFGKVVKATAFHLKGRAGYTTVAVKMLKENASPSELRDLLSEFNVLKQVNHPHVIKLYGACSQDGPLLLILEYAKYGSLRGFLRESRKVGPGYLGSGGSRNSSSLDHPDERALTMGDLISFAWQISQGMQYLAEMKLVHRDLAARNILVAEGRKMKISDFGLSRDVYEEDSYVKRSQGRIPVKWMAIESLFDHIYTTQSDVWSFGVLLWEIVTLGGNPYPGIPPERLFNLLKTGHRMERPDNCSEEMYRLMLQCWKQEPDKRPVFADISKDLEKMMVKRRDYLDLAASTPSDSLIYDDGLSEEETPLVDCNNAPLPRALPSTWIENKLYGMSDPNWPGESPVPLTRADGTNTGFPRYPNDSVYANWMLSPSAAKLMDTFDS

[3] = target: T3, PKCα(h) (Homo sapiens, UniProt P17252)
T3 construct: purchased Eurofins (KinaseProfiler)

[4] = target: T4, BTK(h) (Homo sapiens, UniProt Q06187)
T4 construct: purchased Eurofins (KinaseProfiler)
T4 sequence (Q06187 whole entry): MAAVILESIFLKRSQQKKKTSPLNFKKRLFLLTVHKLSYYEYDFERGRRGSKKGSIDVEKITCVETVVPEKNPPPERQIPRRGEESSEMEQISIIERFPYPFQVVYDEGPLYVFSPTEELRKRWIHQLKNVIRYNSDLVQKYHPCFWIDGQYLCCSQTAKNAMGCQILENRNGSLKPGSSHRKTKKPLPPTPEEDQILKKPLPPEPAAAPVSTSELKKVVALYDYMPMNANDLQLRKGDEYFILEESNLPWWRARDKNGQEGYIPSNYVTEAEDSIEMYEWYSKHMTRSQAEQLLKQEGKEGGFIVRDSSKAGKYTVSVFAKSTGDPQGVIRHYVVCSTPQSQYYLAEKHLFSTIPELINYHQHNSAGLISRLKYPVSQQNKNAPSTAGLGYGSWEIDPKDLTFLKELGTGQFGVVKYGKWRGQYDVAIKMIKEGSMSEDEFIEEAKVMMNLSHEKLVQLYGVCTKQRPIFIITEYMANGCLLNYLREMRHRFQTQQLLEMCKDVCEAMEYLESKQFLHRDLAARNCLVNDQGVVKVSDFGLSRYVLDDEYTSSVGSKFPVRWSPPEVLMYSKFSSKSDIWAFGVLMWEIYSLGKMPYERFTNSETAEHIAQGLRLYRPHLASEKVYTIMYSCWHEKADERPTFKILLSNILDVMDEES

[5] = target: T5, MELK(h) (Homo sapiens, UniProt Q14680)
T5 construct: purchased Eurofins (KinaseProfiler)
T5 sequence (Q14680 whole entry): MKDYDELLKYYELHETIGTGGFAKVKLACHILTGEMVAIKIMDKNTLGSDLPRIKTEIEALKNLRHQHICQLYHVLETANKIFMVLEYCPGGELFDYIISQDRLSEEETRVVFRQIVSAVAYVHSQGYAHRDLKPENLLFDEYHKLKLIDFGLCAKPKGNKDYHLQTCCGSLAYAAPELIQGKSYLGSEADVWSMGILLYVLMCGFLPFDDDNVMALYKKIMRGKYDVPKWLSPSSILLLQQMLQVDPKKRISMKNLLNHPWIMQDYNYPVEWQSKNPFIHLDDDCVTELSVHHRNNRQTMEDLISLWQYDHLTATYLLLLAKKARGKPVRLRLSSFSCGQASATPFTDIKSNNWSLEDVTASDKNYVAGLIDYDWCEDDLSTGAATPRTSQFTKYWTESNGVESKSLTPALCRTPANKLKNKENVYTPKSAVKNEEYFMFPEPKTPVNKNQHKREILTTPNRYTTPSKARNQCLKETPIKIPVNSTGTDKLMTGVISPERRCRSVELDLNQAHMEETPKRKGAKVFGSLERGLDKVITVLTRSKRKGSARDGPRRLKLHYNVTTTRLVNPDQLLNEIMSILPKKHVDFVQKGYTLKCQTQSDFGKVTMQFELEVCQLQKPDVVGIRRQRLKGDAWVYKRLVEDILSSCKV

[6] = target: T6, PIP4K2α(h) (Homo sapiens, UniProt P48426)
T6 construct: purchased Eurofins (KinaseProfiler)
T6 sequence (P48426 1-406): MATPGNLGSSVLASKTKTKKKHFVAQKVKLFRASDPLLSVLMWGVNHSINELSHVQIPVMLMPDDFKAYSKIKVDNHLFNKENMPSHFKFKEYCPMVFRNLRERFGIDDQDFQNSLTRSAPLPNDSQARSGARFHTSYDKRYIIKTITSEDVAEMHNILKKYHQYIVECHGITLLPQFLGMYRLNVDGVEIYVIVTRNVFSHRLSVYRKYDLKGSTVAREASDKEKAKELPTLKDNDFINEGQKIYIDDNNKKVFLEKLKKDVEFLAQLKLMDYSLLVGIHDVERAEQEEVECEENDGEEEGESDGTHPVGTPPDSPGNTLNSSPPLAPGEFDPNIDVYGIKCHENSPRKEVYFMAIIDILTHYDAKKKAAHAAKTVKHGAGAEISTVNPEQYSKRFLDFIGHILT

[7] = target: T7, NDR2(h) (Homo sapiens, UniProt Q9Y2H1)
T7 construct: purchased Eurofins (KinaseProfiler)

[8] = target: T8, MARK3(h) (Homo sapiens, UniProt P27448)
T8 construct: purchased Eurofins (KinaseProfiler)

[9] = target: T9, PAK5(h) (Homo sapiens, UniProt Q9P286)
T9 construct: purchased Eurofins (KinaseProfiler)
T9 sequence (Q9P286 whole entry): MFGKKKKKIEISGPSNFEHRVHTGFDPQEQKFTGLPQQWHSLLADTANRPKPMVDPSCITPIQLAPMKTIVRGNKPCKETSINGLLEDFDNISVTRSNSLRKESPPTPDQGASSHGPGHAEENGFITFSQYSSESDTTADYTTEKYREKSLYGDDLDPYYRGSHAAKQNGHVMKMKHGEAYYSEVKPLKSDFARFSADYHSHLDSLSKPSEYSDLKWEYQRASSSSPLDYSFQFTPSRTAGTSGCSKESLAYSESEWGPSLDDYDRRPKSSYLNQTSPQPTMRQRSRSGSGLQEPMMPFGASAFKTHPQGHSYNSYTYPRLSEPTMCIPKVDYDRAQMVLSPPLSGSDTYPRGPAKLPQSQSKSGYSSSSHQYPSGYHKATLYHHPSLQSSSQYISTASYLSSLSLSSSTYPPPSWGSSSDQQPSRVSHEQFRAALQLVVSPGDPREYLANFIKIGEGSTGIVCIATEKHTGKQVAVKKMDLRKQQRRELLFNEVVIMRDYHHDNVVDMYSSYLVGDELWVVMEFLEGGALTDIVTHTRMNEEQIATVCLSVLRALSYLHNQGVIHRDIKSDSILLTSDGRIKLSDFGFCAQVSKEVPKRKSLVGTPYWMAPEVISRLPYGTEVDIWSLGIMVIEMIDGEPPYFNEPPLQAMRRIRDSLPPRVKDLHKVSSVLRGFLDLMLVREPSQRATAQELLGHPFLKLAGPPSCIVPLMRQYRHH

[10] = target: T10, Pim-2(h) (Homo sapiens, UniProt Q9P1W9)
T10 construct: purchased Eurofins (KinaseProfiler)

[11] = target: T11, PAK3(h) (Homo sapiens, UniProt O75914)
T11 construct: purchased Eurofins (KinaseProfiler)
T11 sequence (O75914 whole entry): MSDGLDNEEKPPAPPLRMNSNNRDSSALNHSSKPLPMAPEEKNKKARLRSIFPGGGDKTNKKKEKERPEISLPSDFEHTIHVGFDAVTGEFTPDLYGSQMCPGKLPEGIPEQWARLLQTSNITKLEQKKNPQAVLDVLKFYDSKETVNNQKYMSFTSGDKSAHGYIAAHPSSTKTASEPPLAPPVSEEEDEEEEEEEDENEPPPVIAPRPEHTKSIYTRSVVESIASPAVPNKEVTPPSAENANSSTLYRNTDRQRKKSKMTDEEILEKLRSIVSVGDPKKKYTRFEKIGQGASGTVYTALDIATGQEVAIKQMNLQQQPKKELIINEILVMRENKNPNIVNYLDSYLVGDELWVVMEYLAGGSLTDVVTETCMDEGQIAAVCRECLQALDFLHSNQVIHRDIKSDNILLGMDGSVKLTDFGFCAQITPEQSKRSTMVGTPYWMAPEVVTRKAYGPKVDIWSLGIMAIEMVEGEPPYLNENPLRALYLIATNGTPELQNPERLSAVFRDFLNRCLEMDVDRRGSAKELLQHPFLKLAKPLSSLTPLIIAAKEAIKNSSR

[12] = target: T12, EGFR(L861Q)(h) (Homo sapiens, UniProt P00533, L861Q)
T12 construct: purchased Eurofins (KinaseProfiler)
T12 sequence (P00533 25-1210 L861Q): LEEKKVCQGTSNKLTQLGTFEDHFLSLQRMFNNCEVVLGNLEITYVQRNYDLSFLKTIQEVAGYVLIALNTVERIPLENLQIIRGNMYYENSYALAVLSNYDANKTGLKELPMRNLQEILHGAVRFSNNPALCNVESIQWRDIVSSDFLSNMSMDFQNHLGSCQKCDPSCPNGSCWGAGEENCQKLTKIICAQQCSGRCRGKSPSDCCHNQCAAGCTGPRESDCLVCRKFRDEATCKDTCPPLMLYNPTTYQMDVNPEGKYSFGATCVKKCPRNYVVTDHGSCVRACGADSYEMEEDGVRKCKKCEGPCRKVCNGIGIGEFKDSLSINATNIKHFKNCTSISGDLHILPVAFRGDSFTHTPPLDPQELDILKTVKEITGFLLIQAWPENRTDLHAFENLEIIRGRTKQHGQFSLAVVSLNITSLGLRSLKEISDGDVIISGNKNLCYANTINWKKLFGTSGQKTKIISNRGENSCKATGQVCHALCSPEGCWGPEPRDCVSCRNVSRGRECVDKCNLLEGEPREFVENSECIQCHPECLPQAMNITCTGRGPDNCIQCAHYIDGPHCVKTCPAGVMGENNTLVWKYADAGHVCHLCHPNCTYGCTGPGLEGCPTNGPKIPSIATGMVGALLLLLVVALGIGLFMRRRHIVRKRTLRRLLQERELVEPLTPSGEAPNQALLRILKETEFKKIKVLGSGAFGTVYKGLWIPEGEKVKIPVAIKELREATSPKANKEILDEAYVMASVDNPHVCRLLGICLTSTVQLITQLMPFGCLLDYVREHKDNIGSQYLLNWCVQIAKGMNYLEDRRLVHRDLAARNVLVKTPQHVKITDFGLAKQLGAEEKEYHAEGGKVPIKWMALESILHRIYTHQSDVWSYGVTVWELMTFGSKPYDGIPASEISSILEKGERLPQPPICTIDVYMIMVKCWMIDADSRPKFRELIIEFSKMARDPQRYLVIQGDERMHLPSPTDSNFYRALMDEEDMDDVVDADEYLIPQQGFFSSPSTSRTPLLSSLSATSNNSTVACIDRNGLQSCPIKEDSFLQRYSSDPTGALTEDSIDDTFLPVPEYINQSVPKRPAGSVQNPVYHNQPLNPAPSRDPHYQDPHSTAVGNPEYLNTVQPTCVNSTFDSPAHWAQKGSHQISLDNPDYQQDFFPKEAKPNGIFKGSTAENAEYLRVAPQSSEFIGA

[13] = target: T13, GRK7(h) (Homo sapiens, UniProt Q8WTQ7)
T13 construct: purchased Eurofins (KinaseProfiler)
T13 sequence (Q8WTQ7 1-553): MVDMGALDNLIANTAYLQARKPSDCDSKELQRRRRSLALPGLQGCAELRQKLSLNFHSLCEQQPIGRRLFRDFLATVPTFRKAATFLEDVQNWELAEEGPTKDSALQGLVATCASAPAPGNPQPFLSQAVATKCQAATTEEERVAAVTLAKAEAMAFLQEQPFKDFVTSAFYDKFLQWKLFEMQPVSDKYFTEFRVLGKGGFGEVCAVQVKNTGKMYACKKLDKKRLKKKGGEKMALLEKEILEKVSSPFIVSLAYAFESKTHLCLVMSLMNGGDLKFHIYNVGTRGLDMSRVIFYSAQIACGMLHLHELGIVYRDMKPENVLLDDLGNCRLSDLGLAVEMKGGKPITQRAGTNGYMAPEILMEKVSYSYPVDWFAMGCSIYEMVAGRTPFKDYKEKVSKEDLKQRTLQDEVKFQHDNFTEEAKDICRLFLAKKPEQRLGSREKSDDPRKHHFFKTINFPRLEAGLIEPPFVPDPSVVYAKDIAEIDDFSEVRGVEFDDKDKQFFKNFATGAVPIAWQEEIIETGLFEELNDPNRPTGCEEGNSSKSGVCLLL

COc1cc(OC)c(Cl)c(-c2ccc3c(NC(=O)c4ccc(N5CCNC(C)(C)C5)cc4)n[nH]c3n2)c1Cl [3D185]
inhibition at 0.01 µM ([1]; 10 nM): -15%
inhibition at 0.1 µM ([1]; 100 nM): -19%
inhibition at 1 µM ([1]; 1000 nM): -17%
inhibition at 0.01 µM ([2]; 10 nM): -13%
inhibition at 0.1 µM ([2]; 100 nM): -15%
inhibition at 1 µM ([2]; 1000 nM): 20%
inhibition at 0.01 µM ([3]; 10 nM): -1%
inhibition at 0.1 µM ([3]; 100 nM): 1%
inhibition at 1 µM ([3]; 1000 nM): 3%
inhibition at 0.01 µM ([4]; 10 nM): 11%
inhibition at 0.1 µM ([4]; 100 nM): 39%
inhibition at 1 µM ([4]; 1000 nM): 90%
inhibition at 0.01 µM ([5]; 10 nM): -1%
inhibition at 0.1 µM ([5]; 100 nM): 8%
inhibition at 1 µM ([5]; 1000 nM): 14%
inhibition at 0.01 µM ([6]; 10 nM): 1%
inhibition at 0.1 µM ([6]; 100 nM): -2%
inhibition at 1 µM ([6]; 1000 nM): 4%
inhibition at 0.01 µM ([7]; 10 nM): 2%
inhibition at 0.1 µM ([7]; 100 nM): -8%
inhibition at 1 µM ([7]; 1000 nM): 1%
inhibition at 0.01 µM ([8]; 10 nM): 7%
inhibition at 0.1 µM ([8]; 100 nM): -6%
inhibition at 1 µM ([8]; 1000 nM): -4%
inhibition at 0.01 µM ([9]; 10 nM): -11%
inhibition at 0.1 µM ([9]; 100 nM): -2%
inhibition at 1 µM ([9]; 1000 nM): 5%
inhibition at 0.01 µM ([10]; 10 nM): 11%
inhibition at 0.1 µM ([10]; 100 nM): 3%
inhibition at 1 µM ([10]; 1000 nM): 6%
inhibition at 0.01 µM ([11]; 10 nM): -1%
inhibition at 0.1 µM ([11]; 100 nM): -3%
inhibition at 1 µM ([11]; 1000 nM): 7%
inhibition at 0.01 µM ([12]; 10 nM): -5%
inhibition at 0.1 µM ([12]; 100 nM): -5%
inhibition at 1 µM ([12]; 1000 nM): 39%
inhibition at 0.01 µM ([13]; 10 nM): 9%
inhibition at 0.1 µM ([13]; 100 nM): 16%
inhibition at 1 µM ([13]; 1000 nM): 27%
